Where “and” joins values, the source holds several entries; their conditions need not be identical. Equal values may be shown once.
Experiments:
[1] = tested on: MON, G401, BT-12 and BT-16 rhabdoid cell lines; assay: Flow cytometry apoptosis (Annexin V / PI); type: cell-based, human; conditions: G401, BT-12, BT-16, 100nM for 48 hours
Protocol: Live cells were stained with Annexin V as an indicator of early apoptosis and Propidium Iodide (PI - Thermo Fisher Scientific, USA) for detection of late apoptosis and necrosis, according to manufacturer’s instructions (Thermo Fisher Scientific, USA). Flow cytometric analysis was performed on a BD Fortessa instrument (BD Biosciences, USA) within an hour of staining. Data was analyzed using Modfit LT from Verity Software House. All experiments were performed in triplicates.

DDR2 = DDR2 (Homo sapiens, UniProt Q16832); assay: Kinase activity screening (SelectScreen), DDR2; type: biochemical
Chain of DDR2 (Q16832 22-855): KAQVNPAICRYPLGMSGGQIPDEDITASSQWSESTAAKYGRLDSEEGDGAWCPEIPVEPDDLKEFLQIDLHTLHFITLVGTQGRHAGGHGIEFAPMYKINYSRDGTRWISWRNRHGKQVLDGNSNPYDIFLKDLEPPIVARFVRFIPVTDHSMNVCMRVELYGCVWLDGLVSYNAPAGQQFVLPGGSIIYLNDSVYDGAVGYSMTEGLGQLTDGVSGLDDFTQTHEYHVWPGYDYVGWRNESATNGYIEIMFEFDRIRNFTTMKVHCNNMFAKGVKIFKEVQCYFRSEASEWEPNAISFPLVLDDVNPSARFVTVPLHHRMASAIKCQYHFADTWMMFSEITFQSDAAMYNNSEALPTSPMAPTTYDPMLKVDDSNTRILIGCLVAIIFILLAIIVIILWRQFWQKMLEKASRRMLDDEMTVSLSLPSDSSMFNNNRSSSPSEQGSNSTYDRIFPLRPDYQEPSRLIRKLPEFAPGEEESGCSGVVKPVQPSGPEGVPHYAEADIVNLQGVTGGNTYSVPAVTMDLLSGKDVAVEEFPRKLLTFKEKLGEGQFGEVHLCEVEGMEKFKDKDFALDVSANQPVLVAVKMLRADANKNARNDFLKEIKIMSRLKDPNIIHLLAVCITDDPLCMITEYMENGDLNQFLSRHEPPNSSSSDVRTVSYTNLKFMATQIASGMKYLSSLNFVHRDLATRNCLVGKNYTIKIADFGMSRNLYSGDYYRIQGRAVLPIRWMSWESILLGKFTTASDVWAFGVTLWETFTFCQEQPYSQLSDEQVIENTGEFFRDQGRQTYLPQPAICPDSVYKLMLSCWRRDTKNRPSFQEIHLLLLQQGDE

various kinases [2] = molecular target: various kinases (Homo sapiens, UniProt Q9NYL2); assay: LanthaScreen Eu Kinase Binding Assay, panel of 486 biochemical kinase assays; conditions: kinase ZAK; LanthaScreen Binding
Chain of various kinases (Homo sapiens, UniProt Q9NYL2) (Q9NYL2 whole entry): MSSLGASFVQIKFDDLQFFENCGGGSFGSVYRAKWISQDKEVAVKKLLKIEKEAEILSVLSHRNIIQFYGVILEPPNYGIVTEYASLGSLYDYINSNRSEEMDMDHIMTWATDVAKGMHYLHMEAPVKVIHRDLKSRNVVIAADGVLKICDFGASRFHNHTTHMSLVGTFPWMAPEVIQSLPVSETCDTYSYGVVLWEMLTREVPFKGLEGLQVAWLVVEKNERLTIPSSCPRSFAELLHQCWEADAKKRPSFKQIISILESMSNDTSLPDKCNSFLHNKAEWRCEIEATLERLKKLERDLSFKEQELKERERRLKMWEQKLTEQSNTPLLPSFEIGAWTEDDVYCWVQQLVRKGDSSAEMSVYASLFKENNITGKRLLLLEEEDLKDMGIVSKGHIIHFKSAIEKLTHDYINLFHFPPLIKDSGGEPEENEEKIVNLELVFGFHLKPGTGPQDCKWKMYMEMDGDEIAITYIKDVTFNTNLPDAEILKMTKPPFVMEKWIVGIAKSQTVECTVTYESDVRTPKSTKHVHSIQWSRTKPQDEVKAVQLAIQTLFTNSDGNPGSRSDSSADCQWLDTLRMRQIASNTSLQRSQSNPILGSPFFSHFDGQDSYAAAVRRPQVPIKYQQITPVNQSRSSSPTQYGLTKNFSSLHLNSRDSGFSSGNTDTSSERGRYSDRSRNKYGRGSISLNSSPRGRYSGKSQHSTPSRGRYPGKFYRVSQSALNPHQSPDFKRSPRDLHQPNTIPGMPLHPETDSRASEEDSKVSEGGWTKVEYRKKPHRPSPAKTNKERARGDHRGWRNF

various kinases [3] = molecular target: various kinases (Homo sapiens, UniProt Q16832, N456S); assay: as above; conditions: DDR2 N456S
Chain of various kinases (Homo sapiens, UniProt Q16832, N456S) (Q16832 22-855 N456S): as the sequence (Q16832 22-855) above, with N435S counted along it

various kinases [4] = molecular target: T1, various kinases (Homo sapiens, UniProt P33981); assay: as above; conditions: kinase TTK; LanthaScreen Binding
T1 sequence (P33981 1-857): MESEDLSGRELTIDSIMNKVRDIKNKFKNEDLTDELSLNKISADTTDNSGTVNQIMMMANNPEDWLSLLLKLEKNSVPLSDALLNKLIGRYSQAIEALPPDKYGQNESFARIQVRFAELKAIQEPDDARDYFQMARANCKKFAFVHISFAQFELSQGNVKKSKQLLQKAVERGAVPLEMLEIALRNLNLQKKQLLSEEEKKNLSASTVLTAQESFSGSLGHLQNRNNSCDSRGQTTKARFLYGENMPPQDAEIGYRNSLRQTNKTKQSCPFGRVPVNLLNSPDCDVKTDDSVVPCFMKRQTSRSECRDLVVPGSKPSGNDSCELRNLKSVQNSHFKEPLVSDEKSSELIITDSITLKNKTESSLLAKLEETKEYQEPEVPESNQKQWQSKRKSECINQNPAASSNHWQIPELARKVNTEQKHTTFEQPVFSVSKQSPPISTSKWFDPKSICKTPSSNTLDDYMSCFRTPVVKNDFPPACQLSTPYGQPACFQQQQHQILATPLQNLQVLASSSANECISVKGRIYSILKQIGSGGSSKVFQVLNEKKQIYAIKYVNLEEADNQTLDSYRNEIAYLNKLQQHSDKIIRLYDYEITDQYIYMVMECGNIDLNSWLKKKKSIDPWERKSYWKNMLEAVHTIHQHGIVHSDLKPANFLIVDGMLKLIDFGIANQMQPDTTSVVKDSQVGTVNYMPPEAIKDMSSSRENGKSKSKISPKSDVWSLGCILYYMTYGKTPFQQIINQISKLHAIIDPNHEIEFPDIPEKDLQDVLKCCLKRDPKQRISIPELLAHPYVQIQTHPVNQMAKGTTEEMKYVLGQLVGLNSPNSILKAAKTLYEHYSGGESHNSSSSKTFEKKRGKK

various kinases [5] = molecular target: various kinases (Homo sapiens, UniProt O14936); assay: as above; conditions: CASK
Chain of various kinases (Homo sapiens, UniProt O14936) (O14936 whole entry): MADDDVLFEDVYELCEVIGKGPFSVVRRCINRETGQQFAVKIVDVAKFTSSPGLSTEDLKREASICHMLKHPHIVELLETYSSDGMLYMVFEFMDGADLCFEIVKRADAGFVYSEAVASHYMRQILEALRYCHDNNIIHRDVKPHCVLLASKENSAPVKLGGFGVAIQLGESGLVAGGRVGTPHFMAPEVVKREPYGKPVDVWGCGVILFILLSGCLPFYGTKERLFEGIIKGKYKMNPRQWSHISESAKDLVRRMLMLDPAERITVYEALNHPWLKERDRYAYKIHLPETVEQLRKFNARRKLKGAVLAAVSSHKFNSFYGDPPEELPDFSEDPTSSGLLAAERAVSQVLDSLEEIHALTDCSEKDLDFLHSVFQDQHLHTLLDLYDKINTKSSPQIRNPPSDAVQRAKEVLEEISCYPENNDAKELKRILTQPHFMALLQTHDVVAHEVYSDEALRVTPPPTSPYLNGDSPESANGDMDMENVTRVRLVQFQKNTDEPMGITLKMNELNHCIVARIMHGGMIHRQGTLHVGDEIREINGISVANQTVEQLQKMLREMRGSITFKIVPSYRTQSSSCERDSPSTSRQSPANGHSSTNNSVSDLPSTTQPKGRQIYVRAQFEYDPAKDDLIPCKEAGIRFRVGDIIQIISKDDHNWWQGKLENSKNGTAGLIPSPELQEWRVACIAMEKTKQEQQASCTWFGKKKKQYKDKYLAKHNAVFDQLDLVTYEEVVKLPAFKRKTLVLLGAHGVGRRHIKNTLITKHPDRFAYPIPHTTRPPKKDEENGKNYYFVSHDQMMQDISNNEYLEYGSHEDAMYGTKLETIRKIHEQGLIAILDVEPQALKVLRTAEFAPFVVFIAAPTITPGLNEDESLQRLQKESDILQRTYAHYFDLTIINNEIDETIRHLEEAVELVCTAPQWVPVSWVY

various kinases [6] = molecular target: various kinases (Homo sapiens, UniProt P53671); assay: as above; conditions: LIMK2
Chain of various kinases (Homo sapiens, UniProt P53671) (P53671 whole entry): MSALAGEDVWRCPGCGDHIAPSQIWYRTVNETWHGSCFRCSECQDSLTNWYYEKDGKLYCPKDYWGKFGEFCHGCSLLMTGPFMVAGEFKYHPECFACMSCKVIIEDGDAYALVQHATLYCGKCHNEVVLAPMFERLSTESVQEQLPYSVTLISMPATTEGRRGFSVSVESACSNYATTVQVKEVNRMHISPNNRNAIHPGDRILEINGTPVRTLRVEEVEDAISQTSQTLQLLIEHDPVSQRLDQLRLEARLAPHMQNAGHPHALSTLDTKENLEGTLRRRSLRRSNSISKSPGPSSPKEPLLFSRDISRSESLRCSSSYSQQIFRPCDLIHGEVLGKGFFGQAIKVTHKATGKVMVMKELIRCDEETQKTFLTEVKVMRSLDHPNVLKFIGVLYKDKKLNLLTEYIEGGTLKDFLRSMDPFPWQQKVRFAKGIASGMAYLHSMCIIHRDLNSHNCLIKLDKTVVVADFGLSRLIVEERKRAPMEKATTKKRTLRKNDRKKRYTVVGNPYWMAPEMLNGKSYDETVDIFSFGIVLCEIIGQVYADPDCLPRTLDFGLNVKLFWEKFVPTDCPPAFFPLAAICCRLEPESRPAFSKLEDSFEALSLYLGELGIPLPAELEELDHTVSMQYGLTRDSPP

various kinases [7] = molecular target: various kinases (Homo sapiens, UniProt Q13163); assay: as above; conditions: MAP2K5 (MEK5)
various kinases [8] = molecular target: various kinases (Homo sapiens, UniProt Q8IVH8); assay: as above; conditions: MAP4K3 (GLK)
Chain of various kinases (Homo sapiens, UniProt Q8IVH8) (Q8IVH8 whole entry): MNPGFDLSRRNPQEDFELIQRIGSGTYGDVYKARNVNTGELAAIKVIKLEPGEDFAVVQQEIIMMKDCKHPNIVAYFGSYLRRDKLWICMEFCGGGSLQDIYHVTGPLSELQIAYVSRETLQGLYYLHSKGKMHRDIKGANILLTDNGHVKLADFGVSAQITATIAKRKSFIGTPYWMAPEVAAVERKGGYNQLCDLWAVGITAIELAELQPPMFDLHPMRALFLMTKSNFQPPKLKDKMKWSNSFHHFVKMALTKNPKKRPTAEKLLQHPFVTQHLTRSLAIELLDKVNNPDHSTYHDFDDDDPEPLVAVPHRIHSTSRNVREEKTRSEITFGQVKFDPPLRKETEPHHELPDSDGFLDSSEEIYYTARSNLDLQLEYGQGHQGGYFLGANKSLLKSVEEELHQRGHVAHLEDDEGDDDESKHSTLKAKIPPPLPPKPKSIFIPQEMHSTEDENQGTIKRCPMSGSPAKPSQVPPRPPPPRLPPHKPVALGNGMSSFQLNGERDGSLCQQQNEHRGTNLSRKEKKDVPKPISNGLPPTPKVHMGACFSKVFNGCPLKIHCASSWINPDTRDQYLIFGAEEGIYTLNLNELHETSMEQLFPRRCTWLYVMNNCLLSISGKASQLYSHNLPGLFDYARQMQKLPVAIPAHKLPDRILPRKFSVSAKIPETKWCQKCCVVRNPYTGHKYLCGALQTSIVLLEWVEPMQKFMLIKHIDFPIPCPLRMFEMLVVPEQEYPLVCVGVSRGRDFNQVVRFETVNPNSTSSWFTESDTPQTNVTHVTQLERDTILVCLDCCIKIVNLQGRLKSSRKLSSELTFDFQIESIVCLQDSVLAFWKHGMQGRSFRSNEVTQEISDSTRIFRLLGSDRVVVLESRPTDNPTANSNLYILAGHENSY

various kinases [9] = molecular target: various kinases (Homo sapiens, UniProt P57058); assay: as above; conditions: HUNK
Chain of various kinases (Homo sapiens, UniProt P57058) (P57058 whole entry): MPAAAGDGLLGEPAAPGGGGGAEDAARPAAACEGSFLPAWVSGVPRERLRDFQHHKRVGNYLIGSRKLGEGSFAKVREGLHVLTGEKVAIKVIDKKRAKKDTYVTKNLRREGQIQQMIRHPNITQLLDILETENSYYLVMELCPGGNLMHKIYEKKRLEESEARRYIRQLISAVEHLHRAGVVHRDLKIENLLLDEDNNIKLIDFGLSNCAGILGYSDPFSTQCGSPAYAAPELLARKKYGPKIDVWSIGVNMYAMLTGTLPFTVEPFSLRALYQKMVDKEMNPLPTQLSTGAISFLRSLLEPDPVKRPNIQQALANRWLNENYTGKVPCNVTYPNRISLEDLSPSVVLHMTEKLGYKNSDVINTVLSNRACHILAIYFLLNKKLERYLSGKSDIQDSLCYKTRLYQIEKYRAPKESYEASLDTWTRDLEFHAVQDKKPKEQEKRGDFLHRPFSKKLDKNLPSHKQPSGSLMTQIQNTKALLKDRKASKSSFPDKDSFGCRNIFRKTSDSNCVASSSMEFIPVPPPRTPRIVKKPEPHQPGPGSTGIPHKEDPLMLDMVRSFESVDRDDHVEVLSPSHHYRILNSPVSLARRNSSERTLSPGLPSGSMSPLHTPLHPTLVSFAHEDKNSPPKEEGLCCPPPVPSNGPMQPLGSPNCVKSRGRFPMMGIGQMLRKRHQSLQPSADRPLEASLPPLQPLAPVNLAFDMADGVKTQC

various kinases [10] = molecular target: T2, various kinases (Homo sapiens, UniProt P36897); assay: as above; conditions: kinase TGFBR1 (ALK5); LanthaScreen Binding
T2 sequence (P36897 34-503): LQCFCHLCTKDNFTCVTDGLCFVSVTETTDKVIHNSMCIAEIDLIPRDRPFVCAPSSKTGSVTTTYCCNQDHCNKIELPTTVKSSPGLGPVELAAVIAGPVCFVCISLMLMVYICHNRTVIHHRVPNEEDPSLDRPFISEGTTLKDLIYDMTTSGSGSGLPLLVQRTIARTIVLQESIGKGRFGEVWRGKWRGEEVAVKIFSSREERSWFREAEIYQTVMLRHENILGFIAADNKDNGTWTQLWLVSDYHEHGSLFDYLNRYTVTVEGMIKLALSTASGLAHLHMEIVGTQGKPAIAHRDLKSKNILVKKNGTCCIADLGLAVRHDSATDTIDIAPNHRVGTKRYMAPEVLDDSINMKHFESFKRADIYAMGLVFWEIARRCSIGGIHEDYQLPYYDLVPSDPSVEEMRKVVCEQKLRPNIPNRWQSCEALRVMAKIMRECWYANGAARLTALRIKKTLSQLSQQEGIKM

[11] = tested on: non-neoplastic human fibroblast cells (HFF-SCC058); assay: Immunofluorescence for gamma-tubulin (centriole number), fibroblasts; type: cell-based; conditions: 100nM and 500nM
Protocol: The cells were then blocked in blocking buffer (5% BSA (Jackson Immuno Research Laboratories Inc., USA) in PBST) for 1 hour at RT. The primary antibody ([…] 1:500, Sigma, USA) diluted in 1% BSA in PBST was then added and incubated at 4°C overnight. Then, the cells were washed with 1X PBS thrice. Secondary antibody (Anti-Rabbit IgG (H+L) F (ab’) 2, 1:500, Sigma, USA) diluted in 1% BSA in PBST was added and incubated at RT for 2 hours. Three time washes with 1X PBS were performed. Then, 1mL of DAPI (Thermo Fisher Scientific, USA) in PBS (0.5μl of DAPI in 10 ml PBS) was added to the cells and incubated for 10 min at RT. Finally, 3 time washes with 1X PBS were performed and slides were mounted using Mounting Medium (Thermo Fisher Scientific, USA).

G401 RTK cells = assay: Confluency assay (IncuCyte ZOOM), G401; type: cell-based, human; conditions: increasing concentrations starting at 31.25nM, 48 hours, p-value=0.004
Protocol: For further evaluation of the effect of the PLK4 inhibitor over tumor cell proliferation, confluency was measured over a 48 hour period. MON, BT-12, G401 and DAOY cells were plated in 96-well plates with a density of 6 x 10^4 per well. […] Confluency was monitored for 48 hours by taking phase contrast images every 2 hours and measured using an IncuCyte ZOOM system (Essen BioScience, USA). Experiments were performed in triplicates.

COc1ccc2c(c1)[C@]1(C[C@H]1c1ccc3c(/C=C/c4ccc(CN5C[C@@H](C)O[C@@H](C)C5)cc4)n[nH]c3c1)C(=O)N2 [CFI-400945]
cell death (apoptosis, flow cytometry) vs control [1]: significantly higher percentage of cells undergoing cell death | IC50 (DDR2; 10-point titration): 315 nM | % Inhibition (DDR2; DDR2, LanthaScreen Binding): 9% and 18% | % Inhibition Average (various kinases [2]): -1% | % Inhibition Duplicate #1 (various kinases [2]): -1% | % Inhibition Duplicate #2 (various kinases [2]): -1% | % Inhibition (various kinases [3]): 77% and 74% | % Inhibition Average (various kinases [4]): 6% | % Inhibition Duplicate #1 (various kinases [4]): 4% | % Inhibition Duplicate #2 (various kinases [4]): 7% | % Inhibition (various kinases [5]): 57% and 65% | % Inhibition (various kinases [6]): 4% and 0% | % Inhibition (various kinases [7]): 6% | % Inhibition (various kinases [8]): 23% and 19% | % Inhibition (various kinases [9]): 21% and 22% | % Inhibition Average (various kinases [10]): 3% | % Inhibition Duplicate #1 (various kinases [10]): 4% | % Inhibition Duplicate #2 (various kinases [10]): 3% | paradoxical effect on centriole number [11]: not observed | FC, delay in reaching confluency (G401 RTK cells): 1.78
